Results: patent US10183939B2, “Fused bicyclic (hetero)aromatic compounds useful for the treatment of cancers” (Redx Pharma PLC, priority 2014, dated 2019)
pIC50: −log10 of the molar value. Entries after “also recorded” stand apart in the source; their conditions may differ. Where two headings read alike, the source gives them in different places.

Key:
C-RAF Y340D/Y341D kinase = C-RAF Y340D/Y341D kinase (Homo sapiens (Human), UniProt P04049, Y340D/Y341D); assay: LanthaScreen Eu kinase binding assay (C-RAF); settings: tracer 178 competition, 5 hours
Chain of C-RAF Y340D/Y341D kinase (P04049 306-648 Y340D/Y341D): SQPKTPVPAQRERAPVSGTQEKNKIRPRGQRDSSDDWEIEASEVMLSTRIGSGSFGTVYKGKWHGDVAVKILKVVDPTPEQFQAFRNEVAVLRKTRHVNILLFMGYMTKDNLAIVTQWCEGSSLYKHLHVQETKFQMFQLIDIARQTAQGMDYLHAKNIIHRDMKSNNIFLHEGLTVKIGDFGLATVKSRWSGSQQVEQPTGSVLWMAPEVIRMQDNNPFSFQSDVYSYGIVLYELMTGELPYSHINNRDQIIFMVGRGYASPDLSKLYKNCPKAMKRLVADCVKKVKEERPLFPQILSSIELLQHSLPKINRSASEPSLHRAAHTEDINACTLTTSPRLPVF

[1] = tested on: C-RAF-mediated ERK activation in B-RAF^WT IPC-298 cells (NRAS^Q61L); assay: IPC-298 AlphaScreen SureFire pERK1/2 cellular assay; type: cell-based, human; settings: 1 hour treatment, relative to reference compound Dabrafenib
B-RAF^V600E kinase = B-RAF^V600E kinase (Homo sapiens (Human), UniProt P15056, V600E); assay: LanthaScreen Eu kinase binding assay (B-RAF V600E); settings: tracer 178 competition, 5 hours
Chain of B-RAF^V600E kinase (P15056 whole entry V600E): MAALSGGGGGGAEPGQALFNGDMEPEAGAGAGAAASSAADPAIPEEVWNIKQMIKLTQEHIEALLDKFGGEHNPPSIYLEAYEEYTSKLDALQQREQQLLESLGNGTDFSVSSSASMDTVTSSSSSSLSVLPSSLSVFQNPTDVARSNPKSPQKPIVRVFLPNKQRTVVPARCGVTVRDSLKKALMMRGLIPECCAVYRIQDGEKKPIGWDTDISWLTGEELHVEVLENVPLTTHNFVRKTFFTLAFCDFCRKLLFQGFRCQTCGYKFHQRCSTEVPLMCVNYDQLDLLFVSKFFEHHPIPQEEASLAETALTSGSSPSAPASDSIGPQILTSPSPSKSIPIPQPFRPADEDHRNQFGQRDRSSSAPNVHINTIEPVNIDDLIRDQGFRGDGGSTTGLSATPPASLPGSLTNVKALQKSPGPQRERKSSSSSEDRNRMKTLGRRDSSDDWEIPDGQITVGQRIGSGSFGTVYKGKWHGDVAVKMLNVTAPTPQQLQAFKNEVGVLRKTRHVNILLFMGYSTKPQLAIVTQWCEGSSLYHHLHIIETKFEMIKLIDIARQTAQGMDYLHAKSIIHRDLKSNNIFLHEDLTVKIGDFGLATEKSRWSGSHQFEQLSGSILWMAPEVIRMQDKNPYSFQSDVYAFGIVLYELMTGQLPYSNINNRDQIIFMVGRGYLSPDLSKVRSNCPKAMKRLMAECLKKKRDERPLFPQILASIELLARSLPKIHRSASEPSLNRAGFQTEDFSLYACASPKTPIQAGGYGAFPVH

[2] = tested on: ERK phosphorylation in A375 cells (B-RAF^V600E); assay: A375 AlphaScreen SureFire pERK1/2 cellular assay; type: cell-based; settings: Homo sapiens, A-375, 0.5 h, 30 minutes treatment
[3] = tested on: ERK phosphorylation in WiDr cells (B-RAF^V600E); assay: WiDr AlphaScreen SureFire pERK1/2 cellular assay; type: cell-based; settings: Homo sapiens
[4] = IC50 category, read-out: CRAF binding affinity
[5] = read-out: CRAF binding affinity IC50
[6] = IC50 category, read-out: BRAF^V600E binding affinity
[7] = read-out: BRAF^V600E binding affinity IC50
[8] = read-out: A375 pERK inhibition category
[9] = 1 hr treatment, read-out: WiDr pERK inhibition category 1 hr
[10] = 24 hrs treatment, read-out: WiDr pERK inhibition category 24 hrs
[11] = read-out: A375 pERK inhibition IC50

Structure (SMILES)	pIC50 (C-RAF Y340D/Y341D kinase; [4])	pIC50 (B-RAF^V600E kinase; [6])	pIC50 [2, 8]	paradoxical activation of MAPK pathway (ERK phosphorylation) [1]	further results
O=C1CCc2c(Oc3ccc4c(c3)CC(c3nc(-c5ccccc5)no3)CO4)ccnc2N1 (stereo not drawn) [Example 17, 5-[3-(3-phenyl-1,2,4-oxadiazol-5-yl)chroman-6-yl]oxy-3,4-dihydro-1H-1,8-naphthyridin-2-one]	7.00 to 8.40	7.00 to 8.40	–	–	–
O=C1CCc2c(Oc3ccc4c(c3)CC(c3nc5cccc(Cl)c5[nH]3)CO4)ccnc2N1 (stereo not drawn) [Example 2, 5-[3-(7-chloro-1H-benzimidazol-2-yl)chroman-6-yl]oxy-3,4-dihydro-1H-1,8-naphthyridin-2-one]	7.00 to 8.40	7.00 to 8.40	6.52 to 7.15	–	–
O=C1CCc2c(Oc3ccc4c(c3)CC(c3nc(-c5ccccc5)c[nH]3)CO4)ccnc2N1 (stereo not drawn) [Example 3, 5-[3-(4-phenyl-1H-imidazol-2-yl)chroman-6-yl]oxy-3,4-dihydro-1H-1,8-naphthyridin-2-one]	–	–	–	reduced paradoxical activation of MAPK pathway in comparison to Dabrafenib; also recorded: reduced paradoxical activity	–
O=C1CCc2c(Oc3ccc4c(c3)CC(c3nc(-c5ccncc5)c[nH]3)CO4)ccnc2N1 (stereo not drawn) [Example 4, 5-[3-[4-(4-pyridyl)-1H-imidazol-2-yl]chroman-6-yl]oxy-3,4-dihydro-1H-1,8-naphthyridin-2-one]	> 8.40	> 8.40	< 6.52	reduced paradoxical activity	–
O=C1CCc2c(Oc3ccc4c(c3)CC(c3nc(-c5coc6ccccc56)c[nH]3)CO4)ccnc2N1 (stereo not drawn) [Example 10, 5-[3-[4-(benzofuran-3-yl)-1H-imidazol-2-yl]chroman-6-yl]oxy-3,4-dihydro-1H-1,8-naphthyridin-2-one]	> 8.40	> 8.40	–	–	–
O=C1CCc2c(Oc3ccc4c(c3)O[C@@H](c3nc(-c5ccccc5)c[nH]3)CO4)ccnc2N1 [Example 19, 5-[[(3S)-3-(4-phenyl-1H-imidazol-2-yl)-2,3-dihydro-1,4-benzodioxin-6-yl]oxy]-3,4-dihydro-1H-1,8-naphthyridin-2-one]	> 8.40	> 8.40	6.52 to 7.15	reduced paradoxical activity	pIC50 [3, 9]: 6.52 to 7.15; pIC50 [3, 10]: < 6.52; pIC50 [2, 11]: 6.81
CS(=O)(=O)c1ccc(-c2cnc(C3COc4ccc(Oc5ccnc6c5CCC(=O)N6)cc4C3)[nH]2)cc1 (stereo not drawn) [Example 12, 5-[3-[5-(4-methylsulfonylphenyl)-1H-imidazol-2-yl]chroman-6-yl]oxy-3,4-dihydro-1H-1,8-naphthyridin-2-one]	7.00 to 8.40	< 7.00	–	–	–
Cc1cc(Oc2ccc3c(c2)CC(c2ncc(-c4ccccc4)[nH]2)CO3)ccn1 (stereo not drawn) [Example 21, 2-Methyl-4-[3-(5-phenyl-1H-imidazol-2-yl)chroman-6-yl]oxy-pyridine]	7.00 to 8.40	7.00 to 8.40	–	–	–
O=C1CCc2c(Oc3ccc4c(c3)C=C(c3nc(-c5ccccc5)c[nH]3)CO4)ccnc2N1 [Example 16, 5-[[3-(4-phenyl-1H-imidazol-2-yl)-2H-chromen-6-yl]oxy]-3,4-dihydro-1H-1,8-naphthyridin-2-one]	> 8.40	7.00 to 8.40	< 6.52	–	–
CC(C)(C)c1c[nH]c(C2COc3ccc(Oc4ccnc5c4CCC(=O)N5)cc3C2)n1 (stereo not drawn) [Example 5, 5-[3-(4-tert-butyl-1H-imidazol-2-yl)chroman-6-yl]oxy-3,4-dihydro-1H-1,8-naphthyridin-2-one]	> 8.40	7.00 to 8.40	–	–	–
O=C1CCc2c(Oc3ccc4c(c3)CC(c3ncc(-c5ccc6c(c5)OCO6)[nH]3)CO4)ccnc2N1 (stereo not drawn) [Example 14, 5-[3-[5-(1,3-benzodioxol-5-yl)-1H-imidazol-2-yl]chroman-6-yl]oxy-3,4-dihydro-1H-1,8-naphthyridin-2-one]	> 8.40	> 8.40	–	–	–
O=C1CCc2c(Oc3ccc4c(c3)CC(c3nc(-c5ccsc5)c[nH]3)CO4)ccnc2N1 (stereo not drawn) [Example 6, 5-[3-[4-(3-thienyl)-1H-imidazol-2-yl]chroman-6-yl]oxy-3,4-dihydro-1H-1,8-naphthyridin-2-one]	> 8.40	> 8.40	> 7.15	reduced paradoxical activity	pIC50 (C-RAF Y340D/Y341D kinase; [5]): 9.40; pIC50 (B-RAF^V600E kinase; [7]): 9.00; pIC50 [2, 11]: 7.63

More lines, main results first:

pIC50 (C-RAF Y340D/Y341D kinase; [4])	pIC50 (B-RAF^V600E kinase; [6])	pIC50 [2, 8]	Structure (SMILES)	paradoxical activation of MAPK pathway (ERK phosphorylation) [1]	further results
> 8.40	> 8.40	> 7.15	O=C1CCc2c(Oc3ccc4c(c3)CC(c3nc(-c5cccs5)c[nH]3)CO4)ccnc2N1 (stereo not drawn) [Example 7, 5-[3-[4-(2-thienyl)-1H-imidazol-2-yl]chroman-6-yl]oxy-3,4-dihydro-1H-1,8-naphthyridin-2-one]	reduced paradoxical activity	pIC50 (C-RAF Y340D/Y341D kinase; [5]): 9.30; pIC50 (B-RAF^V600E kinase; [7]): 8.96
> 8.40	> 8.40	6.52 to 7.15	O=C1CCc2c(Oc3ccc4c(c3)O[C@H](c3nc(-c5ccccc5)c[nH]3)CO4)ccnc2N1 [Example 20, 5-[[(3R)-3-(4-phenyl-1H-imidazol-2-yl)-2,3-dihydro-1,4-benzodioxin-6-yl]oxy]-3,4-dihydro-1H-1,8-naphthyridin-2-one]	reduced paradoxical activity	pIC50 [3, 9]: 6.52 to 7.15; pIC50 [3, 10]: < 6.52; pIC50 [2, 11]: 6.55
> 8.40	7.00 to 8.40	–	O=C1CCc2c(Oc3ccc4c(c3)CC(c3ncc(-c5ccc6c(c5)OCCO6)[nH]3)CO4)ccnc2N1 (stereo not drawn) [Example 15, 5-[3-[5-(2,3-dihydro-1,4-benzodioxin-6-yl)-1H-imidazol-2-yl]chroman-6-yl]oxy-3,4-dihydro-1H-1,8-naphthyridin-2-one]	–	–
> 8.40	> 8.40	–	O=C1CCc2c(Oc3ccc4c(c3)CC(c3ncc(-c5cccc(Cl)c5)[nH]3)CO4)ccnc2N1 (stereo not drawn) [Example 9, 5-[3-[5-(3-chlorophenyl)-1H-imidazol-2-yl]chroman-6-yl]oxy-3,4-dihydro-1H-1,8-naphthyridin-2-one]	–	–
> 8.40	> 8.40	–	O=C1CCc2c(Oc3ccc4c(c3)CC(c3ncc(-c5ccc(F)cc5)[nH]3)CO4)ccnc2N1 (stereo not drawn) [Example 13, 5-[3-[5-(4-fluorophenyl)-1H-imidazol-2-yl]chroman-6-yl]oxy-3,4-dihydro-1H-1,8-naphthyridin-2-one]	–	–
> 8.40	> 8.40	< 6.52	O=C1CCc2c(Oc3ccc4c(c3)CC(c3cc(-c5ccccc5)[nH]n3)CO4)ccnc2N1 (stereo not drawn) [Example 18, 5-[3-(5-phenyl-1H-pyrazol-3-yl)chroman-6-yl]oxy-3,4-dihydro-1H-1,8-naphthyridin-2-one]	reduced paradoxical activity	–
> 8.40	> 8.40	–	O=C1CCc2c(Oc3ccc4c(c3)CC(c3ncc(-c5cccnc5)[nH]3)CO4)ccnc2N1 (stereo not drawn) [Example 11, 5-[3-[5-(3-pyridyl)-1H-imidazol-2-yl]chroman-6-yl]oxy-3,4-dihydro-1H-1,8-naphthyridin-2-one]	–	–
> 8.40	> 8.40	–	O=C1CCc2c(Oc3ccc4c(c3)CC(c3nc5ccccc5[nH]3)CO4)ccnc2N1 (stereo not drawn) [Example 1, 5-[3-(1H-benzimidazol-2-yl)chroman-6-yl]oxy-3,4-dihydro-1H-1,8-naphthyridin-2-one]	–	–
> 8.40	> 8.40	–	O=C1CCc2c(Oc3ccc4c(c3)CC(c3ncc(-c5ccccc5Cl)[nH]3)CO4)ccnc2N1 (stereo not drawn) [Example 8, 5-[3-[5-(2-chlorophenyl)-1H-imidazol-2-yl]chroman-6-yl]oxy-3,4-dihydro-1H-1,8-naphthyridin-2-one]	–	–
